Experimental findings from patent publication US9095138B2, “Isoxazoline insecticides” (E.I. du Pont de Nemours and Company, priority 2007, dated 2015) are described below.

Common to all, as to assay type: in vivo
Series [1] concerns diamondback moth (Plutella xylostella). In words: Test A: control of diamondback moth on radish plant, foliar spray. Conditions: sprayed at 50 ppm; neonate larvae on radish; assessed after 6 days; replicated three times. The method in brief: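 Radish plants 12–14 days old, pre-infested with about 50 neonate larvae, were sprayed with compound at 50 ppm in 10% acetone/water with 300 ppm X-77 surfactant, in three replicates. Units were held 6 days at 25 °C and 70% RH. Feeding damage was assessed visually and mortality was counted.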

Series [2] relates to fall armyworm (Spodoptera frugiperda). Nature of the series: Test B: control of fall armyworm on corn (maize) plant, foliar spray. To be noted: sprayed at 50 ppm; 1-day-old larvae on corn; replicated three times. The method in brief: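 Corn plants 4–5 days old were infested with 10–15 one-day-old fall armyworm larvae. They were then sprayed at 50 ppm in 10% acetone/water with 300 ppm non-ionic surfactant, three replicates. After 6 days at 25 °C and 70% RH, feeding damage was assessed visually and mortality rated.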

Series [3] has as its system western flower thrips (Frankliniella occidentalis). Nature of the series: Test E: control of western flower thrips on Soleil bean plant, contact and/or systemic. To be noted: adult thrips, assessed after 6 days, replicated three times. A digest of the protocol:
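A 5-7 day old Soleil bean plant was sprayed with compound at 250 or 50 ppm in 10% acetone/water with 300 ppm X-77 surfactant, dried 1 hour, then infested with 22-27 adult thrips. After 6 days at 25° C., 45-55% relative humidity, mortality and plant damage were rated; three replicates.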

The structures appear in SMILES notation.

Take `CS(=N)(=O)CCNC(=O)c1ccc(C2=NOC(c3cc(Cl)cc(Cl)c3)(C(F)(F)F)C2)c2ccccc12` (centres unmarked) [Compound 94]: the “control efficacy (feeding damage or mortality): very good to excellent levels” value in series [1], in series [2], in series [3] (sprayed at 50 ppm) and in series [3] (sprayed at 250 ppm) was 20% or less feeding damage or 80% or more mortality in each case.
Turning to `CNC(=O)[C@H]1CCCN1C(=O)c1ccc(C2=NOC(c3cc(Cl)cc(Cl)c3)(C(F)(F)F)C2)c2ccccc12` (some centres unmarked) [Compound 104], the “control efficacy (feeding damage or mortality): very good to excellent levels” value in series [1], in series [2], in series [3] (sprayed at 50 ppm) and in series [3] (sprayed at 250 ppm) was 20% or less feeding damage or 80% or more mortality in each case.
